Two compounds from patent US9856348B2, “Multifunctional degradable nanoparticles with control over size and functionalities” (Vanderbilt University, priority 2007, dated 2018) can be followed below.

Test [1] has as its system mice with microbead-elevated intraocular pressure. On the procedure: Two groups of mice (N=3 each) were compared to determine the effect of a single intravitreal injection of brimonidine-laced nanoparticle relative to a single topical drop (eyedrop) of clinical-grade brimonidine. For each mouse, intraocular pressure (IOP) was acutely elevated by an injection (1 μl) of polystyrene microbeads into the anterior chamber of the eye. This induces a 35-40% elevation in IOP that persists for 3-4 weeks. […] IOP was tracked using TonoPen XL measurements until any lowering effect was dissipated.

For test [2], the system named is human microvascular endothelial cells (HMEC). Description: Internalization of FITC-dendrimer conjugates, temperature effect and controls. The class given is cell-based. The following applies: 10 uM, 60 min, 37° C. On the procedure:
Internalization of FD-1 and FD-2 in mammalian cells was assessed using two different cell lines and a previously described method [Futaki, S.; Nakase, I.; Suzuki, T.; Youjun, Y.; Sugiura, Y. Biochemistry 2002, 41, 7925.] with NIH-3T3 fibroblasts and HMEC (human microvascular endothelial cells) and a Zeiss LSM 510 confocal microscope. […] [Futaki, S.; Nakase, I.; Suzuki, T.; Youjun, Y.; Sugiura, Y. Biochemistry 2002, 41, 7925.; Vivès, E.; Brodin, P.; Lebleu, B. J. Biol. Chem. 1997, 272, 16010.] Furthermore, the extent of internalization increased in an incubation time-dependent manner, and it was observed that after just 10 min, the fluorescence intensity of cells treated with FD-2 was near saturation. […] L. Org. Lett. 2005, 7, 4815.] but also regulate the subcellular localization of the molecule and its putative cargo. […] Therefore, the dendrimer with a hexyl spacer crosses the cell membrane faster than the molecule with an ethyl chain. On the other hand, the localization patterns can also be controlled by the length of the spacer. FD-1 with the short spacer appeared to be localized everywhere in the cell, but highly concentrated in the nucleus. […] These translocation features of guanidinlyated dendritic scaffolds as carriers can be important for intracellular delivery of cargo molecules to specific subcellular compartments (e.g., cytosol or nucleus). […]

Turning to `Brc1c(NC2=NCCN2)ccc2nccnc12` [topical brimonidine, 5-Bromo-N-(4,5-dihydro-1H-imidazol-2-yl)quinoxalin-6-amine], in test [1] (single application (1 μl) on day 4 after microbead injection), the “IOP one day after application” value is “normal levels”. In addition, the “time after administration at which IOP returned to elevated levels” value in test [1] (single topical application (1 μl)) is “Six”. For the compound fluorescein isothiocyanate [free FITC], the “fluorescence of treated cells (control experiments)” value in test [2] is reported as “no”.
